Experiments:
[1] = biological target: T1, Acetyl cholinesterase (Electron-eel Type, VI-S) (Electrophorus electricus, UniProt O42275); experiment: biochemical; assay type: biochemical; details: for IC50: linear regression, read-out: AChE IC50 (converted)
T1 construct: purchased Sigma-Aldrich, Germany
Method: Ellman assay was used to evaluate E. umbellata fruit extracts and isolated compounds for their anticholinesterase potentials. About 205 μL extract/compound solutions and 5 μL of AChE (0.03 U/mL)/BChE (0.01 U/mL) along with catalyst DTNB (5 μL) were taken in a cuvette and kept at 30 °C in hot water bath for 15 min. […] As a negative control solution all the above mentioned components except extracts and isolated compounds were mixed in the mentioned order.
V is inhibitor dependent rate of reaction while, Vmax is inhibitor independent rate of reaction.

DPPH scavenging assay = experiment: DPPH scavenging assay
Method: About 24 mg, DPPH was dissolved in 100 mL methanol. Compounds solutions (1 mg/mL) were also prepared in methanol. […] About 0.1 mL of each working dilution was mixed with DPPH (3.0 mL) and incubated at 25 °C for 30 min. […] Ascorbic acid was used as a standard.

ABTS scavenging assay = experiment: ABTS scavenging assay
Method: About 300 μL compounds working dilutions and 3.0 mL ABTS solutions were mixed and incubated for 6 min. Finally the absorbance was measured via UV spectrophotometer. Ascorbic acid was used as positive control. % ABTS scavenging potential was measured using eq. 4.

[2] = tested on: scopolamine-induced cognitive impairment in mice; experiment: Novel object recognition test, scopolamine-induced amnesia; assay type: in vivo; details: donepezil 2 mg/kg
Method: (§1) After the acclimatization period, in scopolamine-induced amnesia test the Albino male mice were randomly divided into six groups (n = 6) to study the effect of CHF. […] The doses of tested solutions of CHF. […] The treatments were continued for 8 days. In the Y-maze and Novel object recognition tests, scopolamine (1 mg/kg, i.p.) was given to the different groups only on the 8th day, 30 min after the respective treatments, to induce cognitive deficit in mice. One hour after administration of the drugs all animals were subjected to Y-maze and Novel object recognition test following standard procedure.
The detail methodology published, was followed while performing the novel object recognition (NORT) test. NORT consisting of habituation, sample, and test phases. On the day before test, mice were allowed to explore the box (without any object) for 2 min. On the day of test after habituation the sample phase was carried out 60 min after the last treatment on the 8th day. In sample phase each mouse was placed in an open field with two identical objects (plastic ball) for 5 min. The mouse was then returned to its home cage. The apparatus was comprised of a white coloured plywood box (40 cm × 40 cm × 66 cm) with a network floors that could be effortlessly cleaned (with 70%v/v ethanol) after every trial. The apparatus was illuminated by a 60 W light suspended 50 cm over the crate. The arena and objects were cleaned with 70% v/v ethanol between trials to avoid olfactory cues. For short-term memory, the test phase was performed 5 min after the sample phase. In the test phase, each mouse was placed again in the open field in which one of the identical objects had been replaced with a novel object (plastic square). The location of the object was counterbalanced so that one half of the mice in each group saw the novel object on the left side of the box arena, and the other half saw the novel object on the right side of the box arena to eliminate bias of sides. NORT can also be used for encoding and retrieval of spatial memory (long-term memory). A wash-out period of 5 days was allowed before the NORT to assess long-term memory in mice. The procedure was the same as that for short-term memory except that mice were presented in the test phase 24 h after the sample phase exposure. The time spent exploring each object in each phase was recorded manually using a stopwatch. A mouse was scored as exploring when its head was oriented towards the object within a distance of 2 cm or when the nose was in contact with the object. Parameters including the time (in seconds) spent exploring familiar (F) object, time (in seconds) spent exploring the novel (N) object, and total time (in seconds) spent exploring both objects (N + F) were measured separately.

[3] = tested on: scopolamine-induced cognitive impairment in mice; experiment: Y-maze test, scopolamine-induced amnesia; assay type: in vivo
Method: as §1
The Y-Maze test was designed to evaluate the short term memory in experimental mice using reported procedure. Y-maze apparatus is Y shaped with three arms of equivalent size, labelled as A, B, and C. Each arm was 20 cm long, 6 cm wide and 15.5 cm high and was oriented at an angle of 120° from the other two. For each animal the Y maze testing was carried out for 5 min. Mice were placed in one arm, and the order and number of arm entries were recorded. An arm entry was considered to be complete when the hind paws of the mice was completely inside a given arm while alternation was defined as consecutive entries by a mouse into the three different arms. The arena was cleaned using 70% v/v ethanol between each trial to avoid olfactory cues. The escape latency (second) on day 1–5 were recorded for all animals. At the end of 5th day, the spontaneous alteration behavior study was conducted. In spontaneous alteration study, each animal was placed at the center of the Y-Maze apparatus and allowed to move freely through the maze. The series of arm entries were visually recorded. To start behavioral test the mice was set in one arm and recorded the number of arm entries, same arm returns (SAR), and alternate arm returns (AAR) were measured. Percent spontaneous alternation performance (SAP) was calculated by the following formula: 5 %SAP=Active alterationstotal alterations/Possible alterationstotalarmentries−2x100

[4] = vs scopolamine (1 mg/kg) group, CHF. Ext 200 mg/kg, CGA 10 and 30 mg/kg, donepezil 2 mg/kg

T1 sequence (O42275 24-633): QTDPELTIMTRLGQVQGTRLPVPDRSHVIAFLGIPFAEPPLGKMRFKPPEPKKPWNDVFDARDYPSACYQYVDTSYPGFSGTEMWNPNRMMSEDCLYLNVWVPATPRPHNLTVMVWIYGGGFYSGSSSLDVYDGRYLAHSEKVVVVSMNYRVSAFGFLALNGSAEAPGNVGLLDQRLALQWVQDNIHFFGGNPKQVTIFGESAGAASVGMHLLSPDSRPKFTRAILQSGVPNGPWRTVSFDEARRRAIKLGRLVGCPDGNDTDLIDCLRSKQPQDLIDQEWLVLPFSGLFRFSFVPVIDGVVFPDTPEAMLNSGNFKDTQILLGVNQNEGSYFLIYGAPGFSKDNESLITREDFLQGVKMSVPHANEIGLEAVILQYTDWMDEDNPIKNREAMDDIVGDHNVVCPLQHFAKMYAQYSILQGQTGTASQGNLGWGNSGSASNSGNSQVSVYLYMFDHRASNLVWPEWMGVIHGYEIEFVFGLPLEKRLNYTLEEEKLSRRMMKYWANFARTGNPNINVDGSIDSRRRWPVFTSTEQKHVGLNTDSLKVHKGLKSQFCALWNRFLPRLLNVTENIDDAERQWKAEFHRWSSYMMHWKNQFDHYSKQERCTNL

Row | SMILES | % AChE Mean ± SEM ([1]; 31.05 µg/mL) [%] | % AChE Mean ± SEM ([1]; 62.5 µg/mL) [%] | % AChE Mean ± SEM ([1]; 125 µg/mL) [%] | % AChE Mean ± SEM ([1]; 250 µg/mL) [%] | % AChE Mean ± SEM ([1]; 500 µg/mL) [%] | % AChE Mean ± SEM ([1]; 1000 µg/mL) [%] | DPPH IC50 (DPPH scavenging assay) [µg/mL] | % DPPH Scavenging Mean ± SEM (DPPH scavenging assay; 31.05 µg/mL) [%] | % DPPH Scavenging Mean ± SEM (DPPH scavenging assay; 62.5 µg/mL) [%] | % DPPH Scavenging Mean ± SEM (DPPH scavenging assay; 125 µg/mL) [%] | % DPPH Scavenging Mean ± SEM (DPPH scavenging assay; 250 µg/mL) [%] | % DPPH Scavenging Mean ± SEM (DPPH scavenging assay; 500 µg/mL) [%] | % DPPH Scavenging Mean ± SEM (DPPH scavenging assay; 1000 µg/mL) [%] | ABTS IC50 (ABTS scavenging assay) [µg/mL] | % ABTS Scavenging Mean ± SEM (ABTS scavenging assay; 31.05 µg/mL) [%] | % ABTS Scavenging Mean ± SEM (ABTS scavenging assay; 62.5 µg/mL) [%] | % ABTS Scavenging Mean ± SEM (ABTS scavenging assay; 125 µg/mL) [%] | % ABTS Scavenging Mean ± SEM (ABTS scavenging assay; 250 µg/mL) [%] | % ABTS Scavenging Mean ± SEM (ABTS scavenging assay; 500 µg/mL) [%] | % ABTS Scavenging Mean ± SEM (ABTS scavenging assay; 1000 µg/mL) [%] | also measured
1 | O=c1oc2c(O)c(O)cc3c(=O)oc4c(O)c(O)cc1c4c23 [Compound-II, Ellagic acid] | 41±0.3 | 48±0.5 | 52±0.4 | 68±0.1 | 75±0.4 | 81±0.5 | 39 | 44±1.4 | 57±0.5 | 59±0.4 | 60±1.2 | 70±0.5 | 77±1.1 | 44 | 41±0.5 | 49±1.0 | 57±1.0 | 64±0.3 | 65±0.4 | 69±1.0 | IC50 [1]: 195 µM
2 | O=C1O[C@H]([C@@H](O)CO)C(O)=C1O [Ascorbic acid, reference compound] |  |  |  |  |  |  | 29 | 69±0.4 | 73±0.5 | 77±0.4 | 80±0.4 | 86±1.0 | 91±0.5 | 32 | 56±1.1 | 64±1.0 | 70±0.5 | 78±0.5 | 84±1.1 | 90±0.5 | 
3 | O=C(O)c1cc(O)c(O)c(O)c1 [Compound-III, Gallic acid] | 39±0.5 | 43±1.1 | 49±1.4 | 55±0.3 | 62±1.2 | 76±2.1 | 52 | 43±1.4 | 48±0.5 | 50±1.2 | 59±1.5 | 70±1.1 | 76±0.5 | 54 | 43±1.3 | 48±0.4 | 50±1.5 | 54±1.1 | 60±0.5 | 65±2.1 | IC50 [1]: 265 µM
4 | Oc1cc(O)cc(O)c1 [Compound-IV, Phloroglucinol] | 21±1.5 | 29±2.1 | 34±1.5 | 40±0.5 | 52±1.6 | 66±1.2 | 105 | 32±0.5 | 36±1.1 | 40±0.5 | 51±1.0 | 57±1.0 | 67±0.4 | 112 | 25±1.0 | 33±0.5 | 39±1.2 | 45±1.0 | 51±0.5 | 54±1.1 | IC50 [1]: 730 µM
5 | COc1cc2c(cc1OC)C(=O)C(CC1CCN(Cc3ccccc3)CC1)C2 (centres unmarked) [Donepezil, reference compound] |  |  |  |  |  |  |  |  |  |  |  |  |  |  |  |  |  |  |  |  | time for exploration of novel object, test phase, long term memory ([2]; CHF. Ext 100 & 200 mg/kg, CGA 10 & 30 mg/kg): significant (*p < 0.05, **p < 0.01) increase; %DI, long term memory ([2]; CHF. Ext 100, 200 mg/kg, CGA 10 & 30 mg/kg): significant (*p < 0.05, **p < 0.01) increase; time with novel object, test phase, short term memory ([2]; vs scopolamine group (*p < 0.05, **p < 0.01), CHF. Ext 50, 100, 200 mg/kg, CGA 10 and 30 mg/kg): more time with novel object; escape latency ([3]; day 1-5, vs scopolamine treated group): significant decline (p < 0.001); percentage of alternate arm returns [3, 4]: significant (*p<0.05; **p < 0.01) increase; percentage of same arm returns [3, 4]: significant (p < 0.01) reduction
